According to patent publication US20050277586A1, “Peptide chemically modified with polyethylene glycol” (priority 2002, published 2005):
pIC50: −log10 of the molar value.

Experiments:
[1] = Measurement of turbidity in BSA (absorbance at 600 nm); format: physicochemical; details: 1% BSA, peptide 50 μM
Experimental: The solutions were evaluated for their absorbance at a wavelength of 600 nm by using a spectrophotometer (DU640, manufactured by Beckman).

[2] = tested on: phosphatidyl serine (binding of human Factor VIII); test: Affinity for phosphatidyl serine (EIA, inhibition of human Factor VIII binding); details: for pIC50: in the presence of 5% BSA, human Factor VIII 1 μg/mL
Experimental: The specific affinity of the peptide for phosphatidyl serine was evaluated by measuring activity of the peptide for inhibiting the binding of the human Factor VIII to phosphatidyl serine by using human Factor VIII which is known to bind to phosphatidyl serine but not to phosphatidyl choline in the presence of serum albumin. To be more specific, 100 μL of ethanol solution containing 10 μg/mL of phospholipids at a phosphatidyl serine (manufactured by SIGMA): phosphatidyl choline (manufactured by SIGMA) ratio of 3:7 was added to the wells of a 96 well plate (Immulon I, manufactured by Dynatech), and exsiccated by using a centrifugal evaporator (EC-95C, manufactured by Sakuma Seisakusho) at 40° C. for 40 minutes. 200 μL each of TBS (10 mM Tris-HCl (pH 7.4) containing 1% bovine serum albumin (BSA Fraction V, hereinafter referred to as BSA, manufactured by Seikagaku Corporation) and 0.9% (W/V) NaCl solution were added to each well, and the wells were blocked by allowing the plate to stand at 37° C. for 2.5 hours. After washing the plate with water, 100 μL of TBS solution supplemented with 5% BSA mixed with human Factor VIII (manufactured by American Diagnostica) at a final concentration 1 μg/mL and the peptide of predetermined dose prepared in Example 1 was added to each well, and the reaction was allowed to take place at 4° C. for 24 hours.
After the completion of the reaction, the human Factor VIII that became bound to the phosphatidyl serine was measured by enzyme immunoassay (EIA) in accordance with the general procedure described in a book (“Enzyme Immunoassay (3rd ed.)”, Eiji Ishikawa et al., Igaku-Shoin, 1987). To be more specific, the measurement was conducted by using anti-human Factor VIII mouse monoclonal antibody (ESH8, manufactured by American Diagnostica) for the primary antibody, horseradish peroxidase-labeled anti-mouse IgG antibody (P0260, manufactured by Daco) for the secondary antibody, and tetramethylbenzidine for the chromogenic substrate, and measuring the absorption at a wavelength of 450 nm by using a reference wavelength of 630 nm on a spectrophotometer (NJ-2100, manufactured by Intermed).
Intensity of the affinity of the peptide for the phosphatidyl serine was evaluated by using the value obtained by subtracting the absorption of the well having no human Factor VIII added thereto from the absorption of the well having only the human Factor VIII added thereto as the control value (100%), and designating the peptide concentration at which the value 0.5 was obtained when the value obtained by subtracting the absorption of the well having only the peptide added thereto from the absorption of the well having a mixture of the human Factor VIII and the peptide added thereto were divided by the control value as the IC50 value, and evaluating the intensity to be ++ when the IC50 value was up to 1 μM, and + when the intensity was more than 1 μM but not more than 10 μM. It is to be noted that the specific affinity was evaluated to be none when the intensity was 10 μM or more.

[3] = tested on: Vero cell, T24 cell, A549 cell; test: Nucleic acid-introducing ability, luciferase-expressing plasmid (procedure of Example 9); format: cell-based; details: for Nucleic acid-introducing ability: luciferase plasmid 1 μg/mL, highest count of peptide 1.25, 2.5 or 5 μM, cell line not stated
From the text: A cell line established from monkey kidney (Vero cell) and a human bladder cancer cell (T24 cell) purchased from American Type Culture Collection (ATCC) and human lung cancer cell (A549 cell) purchased from Dainippon Pharmaceutical were inoculated on a 24 well culture plate (manufactured by NALGEN NUNC) at 1×10^5 cells/well. Vero cell and A549 cell were cultivated in DMEM (manufactured by Life Technologies Oriental) supplemented with 10% fetal bovine serum (hereinafter referred to as FBS, manufactured by NICHIREI), and T24 cell was cultivated in McCoy's 5a (manufactured by Life Technologies Oriental) supplemented with 10% FBS in 5% CO2 atmosphere at 37° C. for 24 hours. After removing the medium, opti-MEM (manufactured by Life Technologies Oriental) prepared to have the concentration of the luciferase-expressing plasmid prepared in Example 7 of 1 μg/mL and the concentration of the peptide prepared in Example 1 of 1.25, 2.5, or 5 μM was added, and the cells were cultivated for 5 hours. Next, in the case of Vero cell and A549 cell, the culture medium was replaced with DMEM supplemented with 10% FBS, and in the case of T24 cell, the medium was replaced with McCoy's 5a supplemented with 10% FBS, and cultivation was continued in 5% CO2 atmosphere and at 37° C. for another 24 hours. The luciferase activity expressed in the cell was then measured by the method instructed in luciferase assay system (manufactured by Promega). To be more specific, the cells were washed with phosphate-buffered saline (hereinafter referred to as PBS, manufactured by SIGMA), and the cells were lyzed with Passive Lysis Buffer attached to the kit.
20 μL of this cell lysate and 100 μL of the Luciferase Assay Reagent II attached to the kit was added to a fluorescence-measuring plate (Microlite™ 1 plate, manufactured by Dynatech), and after mixing, fluorescence was measured for 1 second by using a multilabel counter (ARVO™ SY1420 MULTILABEL COUNTER, manufactured by Wallac Beltold.
Concentration of the protein in the cell lysate was measured by mixing 8 μL of the cell lysate and 200 μL of the protein assay solution (manufactured by Biorad) with 792 μL of ultrapure water in a disposable cuvette (UV fluorescent cuvette A204X, manufactured by Funakoshi), allowing the mixture to stand for 5 minutes at room temperature, and measuring the absorption at 595 nm with a spectrophotometer (DU640, manufactured by Beckman). Bovine serum albumin (BSA) was used for the standard protein. By using the thus obtained results, count per 1 second per 1 mg of protein of the cell lysate was calculated to thereby use the count as the luciferase activity, and the highest count in the three conditions of different peptide concentration was designated the gene-introducing ability of the peptide.

Row | Substance | OD 600 [1] | pIC50 [2] | Affinity for phosphatidyl serine ([2]; procedure of Example 20) | Nucleic acid-introducing ability [3] | Ability of introducing the nucleic acid into a cell ([3]; procedure of Example 9) | Fluorescent count per 1 mg of protein per 1 second ([3]; procedure of Example 9)
1 | Polylysine [reference compound] | ≥ 1 | – | no affinity for phosphatidyl serine | – | – | –
2 | SEQ ID NO: 9: SEQ ID NO: 1 with one or two locations in the 18 amino acid sequence substituted (TRYLRIHPRSWVHQIALRTRYLRIHPRSWVHQIALRS) | – | – | – | 3+ (1,000,000 to less than 10,000,000) | – | –
3 | SEQ ID NO: 12: SEQ ID NO: 1 with one or two locations in the 18 amino acid sequence substituted (TRYLRIHPRSWVHQIALSLRYLRIHPRSWVHQIALSS) | – | – | – | 2+ (100,000 to less than 1,000,000) | – | –
4 | SEQ ID NO: 13: SEQ ID NO: 1 with one or two locations in the 18 amino acid sequence substituted (TRYLRIHPRSLVHQIALRLRYLRIHPRSLVHQIALRS) | – | – | – | 3+ (1,000,000 to less than 10,000,000) | – | –
5 | SEQ ID NO: 14: SEQ ID NO: 1 with one or two locations in the 18 amino acid sequence substituted (TRYLRIHPRSWSHQIALRLRYLRIHPRSWSHQIALRS) | – | – | – | 3+ (1,000,000 to less than 10,000,000) | – | –
6 | SEQ ID NO: 18: SEQ ID NO: 1 with one or two locations in the 18 amino acid sequence substituted (TRYLRIHPRSWLHQIALRTRYLRIHPRSWLHQIALRS) | – | – | – | 4+ (10,000,000 to less than 100,000,000) | – | –
7 | SEQ ID NO: 20: SEQ ID NO: 1 with three locations in the 18 amino acid sequence substituted (TRYLRLHPRSWVHQLALRTRYLRLHPRSWVHQLALRS) | – | – | – | 4+ (10,000,000 to less than 100,000,000) | – | –
8 | SEQ ID NO: 21: SEQ ID NO: 1 with three locations in the 18 amino acid sequence substituted (TKYLKIHPKSWVHQIALRLKYLKIHPKSWVHQIALRS) | – | – | – | 2+ (100,000 to less than 1,000,000) | – | –
9 | SEQ ID NO: 22: SEQ ID NO: 1 with three locations in the 18 amino acid sequence substituted (TRRLRIHPRRWVHRIALRLRRLRIHPRRWVHRIALRS) | – | – | – | 3+ (1,000,000 to less than 10,000,000) | – | –
10 | SEQ ID NO: 24: deletion mutant of the peptide of SEQ ID NO: 4 (TLRYLRIHPRSWLHQIALRS) | – | – | – | 1+ (10,000 to less than 100,000) | had the ability of introducing the nucleic acid into a cell | –
11 | SEQ ID NO: 26: SEQ ID NO: 1 with amino acid substitution so that it lacks the four sided 18 amino acid sequence (TRYLRIHPRSWVLQIALRLRYLRIHPRSWVLQIALRS) [reference compound] | – | – | – | – | no nucleic acid-introducing ability was found | less than 10,000 cps/mg protein
12 | TIHPRSWVHQIALRLRYLRIHPRSWVHQIAS [SEQ ID NO: 23] | < 0.01 | > 6.00 | – | 2+ (100,000 to less than 1,000,000) | had the ability of introducing the nucleic acid into a cell | –
13 | TRYLRIHPRSWVHQIALKLKYLRIHPRSWVHQIALRS [SEQ ID NO: 7] | < 0.01 | 5.00 to 6.00 | – | 2+ (100,000 to less than 1,000,000) | – | –

Continued, in another order:

Row | OD 600 [1] | pIC50 [2] | Substance | Affinity for phosphatidyl serine ([2]; procedure of Example 20) | Nucleic acid-introducing ability [3] | Ability of introducing the nucleic acid into a cell ([3]; procedure of Example 9) | Fluorescent count per 1 mg of protein per 1 second ([3]; procedure of Example 9)
14 | < 0.01 | > 6.00 | TRFLRIHPRSWVHQIALRLRFLRIHPRSWVHQIALRS [SEQ ID NO: 5] | – | 2+ (100,000 to less than 1,000,000) | – | –
15 | < 0.01 | > 6.00 | TRSLRIHPRLWVHQIALRLRSLRIHPRLWVHQIALRS [SEQ ID NO: 17] | – | 2+ (100,000 to less than 1,000,000) | – | –
16 | < 0.01 | 5.00 to 6.00 | TRSLRIHPRSWVHQIALRLRSLRIHPRSWVHQIALRS [SEQ ID NO: 10] | – | 3+ (1,000,000 to less than 10,000,000) | – | –
17 | < 0.01 | 5.00 to 6.00 | TRYLRIHPKSWVHQIALRLRYLKIHPRSWVHQIALRS [SEQ ID NO: 8] | – | 3+ (1,000,000 to less than 10,000,000) | – | –
18 | < 0.01 | 5.00 to 6.00 | TRYLRIHPRLWVHQIALRLRYLRIHPRLWVHQIALRS [SEQ ID NO: 11] | – | 3+ (1,000,000 to less than 10,000,000) | – | –
19 | < 0.01 | > 6.00 | TRYLRIHPRSWVHNIALRLRYLRIHPRSWVHNIALRS [SEQ ID NO: 6] | – | 2+ (100,000 to less than 1,000,000) | – | –
20 | < 0.01 | > 6.00 | TRYLRIHPRSWVHQIRLRLRYLRIHPRSWVHQIRLRS [SEQ ID NO: 3] | – | 2+ (100,000 to less than 1,000,000) | – | –
21 | < 0.01 | > 6.00 | TRYLRIHPRSWVRQIALRLRYLRIHPRSWVRQIALRS [SEQ ID NO: 2] | – | 3+ (1,000,000 to less than 10,000,000) | – | –
22 | < 0.01 | > 6.00 | TRYLRIRPRSWVRQIALRLRYLRIRPRSWVRQIALRS [SEQ ID NO: 15] | – | 2+ (100,000 to less than 1,000,000) | – | –
23 | < 0.01 | > 6.00 | TRYLRLHPRSWLHQLALRLRYLRLHPRSWLHQLALRS [SEQ ID NO: 19] | – | 4+ (10,000,000 to less than 100,000,000) | – | –
